Source: ChEMBL document CHEMBL4130627, “Prodrugs of the Phosphoribosylated Forms of Hydroxypyrazinecarboxamide Pseudobase T-705 and Its De-Fluoro Analogue T-1105 as Potent Influenza Virus Inhibitors” (J Med Chem, 2018)
Active and inactive are the calls of the source. The calls are words filed in the database; no cut-off is given here.

Key:
[1] = Half life of the compound in 25 mM phosphate buffe at pH 1.5 to 7.3 by RP-HPLC analysis; assay type: physicochemical; settings: phosphate buffer
[2] = Inhibition of Influenza virus A/X-31 RNA dependent RNA polymerase using ApG primer [adenyl (3'-5') guanosine] and [8-3H]GTP after 1 hr by filter-based assay; design: species or system Influenza A virus (A/X-31(H3N2))
[3] = Inhibition of Influenza virus B/Ned/537/05 RNA dependent RNA polymerase using ApG primer [adenyl (3'-5') guanosine] and [8-3H]GTP after 1 hr by filter-based assay
[4] = Cytotoxicity against MDCK cells assessed as change in cell morphology after 3 days by microscopic analysis; assay type: cell-based, Canis lupus familiaris; settings: dog
[5] = Cytotoxicity against MDCK cells assessed as reduction in cell viability after 3 days by formazan-based MTS assay; design: species or system Canis lupus familiaris; settings: dog
[6] = Cytotoxicity against HGPRT deficient 6-thioguanine-resistant MDCK cells assessed as change in cell morphology after 3 days by microscopic analysis; assay type: cell-based, Canis lupus familiaris; settings: dog
Influenza A virus [7] = test: microbe, parasite or virus in culture; settings: MDCK, 72 h
Description: Antiviral activity against Influenza virus A/X-31 infected in MDCK cells assessed as reduction in viral replication at 3 days post infection by formazan-based MTS assay

Influenza B virus [8] = test: microbe, parasite or virus in culture; settings: Ned/537/05, MDCK, 72 h
Description: Antiviral activity against Influenza virus B/Ned/537/05 infected in MDCK cells assessed as reduction in viral replication at 3 days post infection by microscopic analysis

Influenza B virus [9] = test: microbe, parasite or virus in culture; settings: Ned/537/05, MDCK, 72 h; remark: listed apart in the source
Description: Antiviral activity against Influenza virus B/Ned/537/05 infected in MDCK cells assessed as reduction in viral replication at 3 days post infection by formazan-based MTS assay

Influenza A virus [10] = test: microbe, parasite or virus in culture; settings: MDCK, 72 h; remark: listed apart in the source
Description: Antiviral activity against Influenza virus A/X-31 infected in MDCK cells assessed as reduction in viral replication at 3 days post infection by microscopic analysis

[11] = Prodrug activation in phosphate buffer at pH 7.3 assessed as half life for T-1105-RMP formation up to 332 hrs by RP-HPLC-UV analysis; assay type: physicochemical; settings: pH 7.3, 332 h
Liver carboxylesterase = biological target: T1, Liver carboxylesterase (Sus scrofa, UniProt Q29550); test: Drug metabolism assessed as pig liver esterase mediated 4-(((((((2R,3S,4R,5R)-5-(3-carbamoyl-2-oxopyrazin-1(2H)-yl)-3,4-dihydroxytetrahydrofuran-2-yl)methoxy)(hydroxy)phosphoryloxy)(hydroxy)phosphoryloxy)(hydroxy)phosphoryloxy)methyl)phenyl decanoate formation at 450 uM after 1 to 8 hrs by RP-HPLC-UV analysis; assay type: ADME; settings: isolated protein
T1 sequence (Q29550 whole entry): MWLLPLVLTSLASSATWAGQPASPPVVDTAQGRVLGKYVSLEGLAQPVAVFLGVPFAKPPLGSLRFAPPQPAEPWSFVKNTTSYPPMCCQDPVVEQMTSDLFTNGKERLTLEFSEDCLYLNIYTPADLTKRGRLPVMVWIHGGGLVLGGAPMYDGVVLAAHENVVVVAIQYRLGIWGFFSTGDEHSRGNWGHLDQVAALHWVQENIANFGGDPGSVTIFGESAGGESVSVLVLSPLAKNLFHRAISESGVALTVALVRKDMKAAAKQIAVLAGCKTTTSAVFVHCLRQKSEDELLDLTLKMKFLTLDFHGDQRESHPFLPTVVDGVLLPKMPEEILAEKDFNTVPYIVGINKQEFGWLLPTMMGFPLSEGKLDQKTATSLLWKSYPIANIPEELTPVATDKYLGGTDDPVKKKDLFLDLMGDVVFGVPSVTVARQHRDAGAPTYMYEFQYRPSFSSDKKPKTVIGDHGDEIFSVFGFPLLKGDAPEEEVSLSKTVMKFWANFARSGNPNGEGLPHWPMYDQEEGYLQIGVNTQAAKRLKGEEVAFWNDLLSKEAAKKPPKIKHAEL

[12] = Drug metabolism in MDCK cells assessed as T-1105-RDP formation at 450 uM up to 4 hrs by RP-HPLC-UV analysis; assay type: ADME, cell-based, Canis lupus familiaris; settings: dog
[13] = Drug metabolism in MDCK cells assessed as 4-((((((2R,3S,4R,5R)-5-(3-carbamoyl-2-oxopyrazin-1(2H)-yl)-3,4-dihydroxytetrahydrofuran-2-yl)methoxy)(hydroxy)phosphoryloxy)(hydroxy)phosphoryloxy)methyl)phenyl decanoate formation at 450 uM up to 4 hrs by RP-HPLC-UV analysis; assay type: ADME, cell-based, Canis lupus familiaris; settings: dog
MDCK [14] = test: Prodrug activation in MDCK cells assessed as T-1105-RMP formation at 450 uM up to 4 hrs by RP-HPLC-UV analysis; assay type: cell-based, Canis lupus familiaris; settings: dog
MDCK [15] = test: Prodrug activation in MDCK cells assessed as T-1105-RTP formation at 450 uM up to 4 hrs by RP-HPLC-UV analysis; assay type: cell-based, Canis lupus familiaris; settings: dog
MDCK [16] = test: Prodrug activation in MDCK cells assessed as T-1105-RDP formation at 500 uM after 2 hrs by RP-HPLC-UV analysis; assay type: cell-based, Canis lupus familiaris; settings: dog
MDCK [17] = assay type: cell-based, Canis lupus familiaris; settings: dog, 2 h, 500 µM
Influenza A virus [18] = assay type: functional, organism-based; settings: Influenza A virus (A/X-31(H3N2)); MDCK; 250 uM
Influenza A virus [19] = assay type: functional, organism-based; settings: Influenza A virus (A/X-31(H3N2)); MDCK; 100 uM
Influenza A virus [20] = assay type: functional, organism-based; settings: Influenza A virus (A/X-31(H3N2)); MDCK; 250 uM; remark: listed apart in the source
MDCK [21] = test: Prodrug activation in MDCK cells assessed as T-1105-RMP formation at 465 uM after 1 to 840 mins by RP-HPLC-UV analysis; assay type: cell-based, Canis lupus familiaris; settings: dog
MDCK [22] = test: Prodrug activation in HGPRT deficient MDCK cells assessed as T-1105-RMP formation at 465 uM after 1 to 840 mins by RP-HPLC-UV analysis; assay type: cell-based, Canis lupus familiaris; settings: dog

Row | SMILES | IC50 [2] [µM] | MCC at 72 h [4] [µM] | CC50 at 72 h [5] [µM] | MCC at 72 h [6] [µM] | EC50 (Influenza A virus [7]) [µM] | EC50 (Influenza B virus [8]) [µM] | EC50 (Influenza B virus [9]) [µM] | EC50 (Influenza A virus [10]) [µM] | other results
1 | Cc1cccc2c1OP(=O)(OC[C@@H]1CC[C@H](n3cnc4c(=O)[nH]cnc43)O1)OC2 (stereo not given in full) |  |  |  |  |  |  |  |  | half-life [1]: 10 to 45 h
2 | COc1ccc2c(c1)COP(=O)(OC[C@@H]1C=C[C@H](n3cnc4c(N)ncnc43)O1)O2 (stereo not given in full) |  |  |  |  |  |  |  |  | half-life [1]: 10 to 45 h
3 | NC(=O)c1nc(F)cn([C@@H]2O[C@H](COP(=O)(O)OP(=O)(O)OP(=O)(O)O)[C@@H](O)[C@H]2O)c1=O | 2.7 |  |  |  |  |  |  |  | IC50 [3]: 2.7 µM
4 | Cc1cccc2c1OP(=O)(OC[C@@H]1C=C[C@H](n3cnc4c(=O)[nH]cnc43)O1)OC2 (stereo not given in full) |  |  |  |  |  |  |  |  | half-life [1]: 10 to 45 h
5 | NC(=O)c1ncn([C@@H]2O[C@H](CO)[C@@H](O)[C@H]2O)n1 [RIBAVIRIN] |  | 59 | > 100 | 35 | 13 | 5.9 | 4.5 |  | 
6 | CC(=O)O[C@@H]1[C@H](OC(C)=O)[C@@H](COP2(=O)OCc3cccc(C)c3O2)O[C@H]1n1ccnc(C(N)=O)c1=O (stereo not given in full) |  | 400 | > 400 | 400 | > 400 | > 400 | 128 | > 400 | 
7 | Nc1ncnc2c1ncn2[C@H]1CC[C@@H](COP2(=O)OCc3ccccc3O2)O1 (stereo not given in full) |  |  |  |  |  |  |  |  | half-life [1]: 10 to 45 h
8 | NC(=O)c1nc(Br)cn([C@@H]2O[C@H](CO)[C@@H](O)[C@H]2O)c1=O |  | > 250 | > 250 | > 250 | > 250 | > 250 | > 250 | > 250 | 
9 | CC(C)(C)c1cc2c(c(C(C)(C)C)c1)OP(=O)(OC[C@H]1O[C@@H](n3ccnc(C(N)=O)c3=O)[C@H](O)[C@@H]1O)OC2 (stereo not given in full) |  |  |  |  |  |  |  |  | t1/2 [11]: 16 h
10 | NC(=O)c1nccn([C@@H]2O[C@H](CO)[C@@H](O)[C@H]2O)c1=O |  | > 250 | > 250 | > 250 | 52 | 24 | 19 | 58 | 
11 | CCCCCCCCCC(=O)Oc1ccc(COP(=O)(OCc2ccc(OC(=O)CCCCCCCCC)cc2)OP(=O)(O)OP(=O)(O)OC[C@H]2O[C@@H](n3ccnc(C(N)=O)c3=O)[C@H](O)[C@@H]2O)cc1.CCN(CC)CC.CCN(CC)CC | 49 to 126 | 16 | 30 | 13 | 3.6 | 2.6 | 2.4 | 2.6 | Drug metabolism (Liver carboxylesterase): Metabolite_Detected; Drug metabolism [12]: Metabolite_Detected; Drug metabolism [13]: Metabolite_Detected; Drug metabolism (MDCK [14]): Metabolite_Detected; Drug metabolism (MDCK [15]): Metabolite_Notdetected; Drug metabolism (MDCK [16]): Metabolite_Detected; Drug metabolism (MDCK [17]): Metabolite_Detected; IC50 [3]: 49 to 126 µM
12 | CCCCCCCCCCCCCCC(=O)Oc1ccc(COP(=O)(OCc2ccc(OC(=O)CCCC)cc2)OP(=O)(O)OC[C@H]2O[C@@H](n3ccnc(C(N)=O)c3=O)[C@H](O)[C@@H]2O)cc1.CCN(CC)CC (stereo not given in full) | 49 to 126 | 21 | 31 | 16 | 1.6 | 0.67 | 0.58 | 1.5 | Drug metabolism [12]: Metabolite_Detected; Drug metabolism [13]: Metabolite_Detected; Drug metabolism (MDCK [14]): Metabolite_Detected; Drug metabolism (MDCK [15]): Metabolite_Notdetected; Drug metabolism (MDCK [16]): Metabolite_Detected; Drug metabolism (MDCK [17]): Metabolite_Detected; IC50 [3]: 49 to 126 µM
13 | Cc1cccc2c1OP(=O)(OC[C@H]1O[C@@H](n3ccnc(C(N)=O)c3=O)[C@H](O)[C@@H]1O)OC2 (stereo not given in full) |  | > 400 | > 400 | > 400 | > 400 | 176 | 135 | 280 | t1/2 [11]: 1.2 h
14 | Nc1nc2c(ncn2[C@@H]2O[C@H](COP(=O)(O)OP(=O)(O)OP(=O)(O)O)C[C@H]2O)c(=O)[nH]1 | 16 |  |  |  |  |  |  |  | 
15 | CCCCCCCCCCCCCCC(=O)Oc1ccc(COP(=O)(OCc2ccc(OC(=O)CCCC)cc2)OP(=O)(O)OP(=O)(O)OC[C@H]2O[C@@H](n3ccnc(C(N)=O)c3=O)[C@H](O)[C@@H]2O)cc1.CCN(CC)CC.CCN(CC)CC (stereo not given in full) |  | 16 | 38 | 16 | 6.7 | 9.9 | 6 | 6 | Drug metabolism [12]: Metabolite_Detected; Drug metabolism [13]: Metabolite_Detected; Drug metabolism (MDCK [14]): Metabolite_Detected; Drug metabolism (MDCK [15]): Metabolite_Notdetected; Drug metabolism (MDCK [16]): Metabolite_Detected; Drug metabolism (MDCK [17]): Metabolite_Detected
16 | NC(=O)c1nc(F)cnc1O |  |  |  |  | 26 | 9 | 8.3 | 24 | inhibition (Influenza A virus [18]): inactive; inhibition (Influenza A virus [19]): Active; inhibition (Influenza A virus [20]): Active
17 | Nc1nc2c(ncn2[C@@H]2O[C@H](COP(=O)(O)OP(=O)(O)OP(=O)(O)O)[C@@H](O)[C@H]2F)c(=O)[nH]1 | 2.5 |  |  |  |  |  |  |  | IC50 [3]: 4.4 µM
18 | NC(=O)c1nccn([C@@H]2O[C@H](COP(=O)(O)OP(=O)(O)OP(=O)(O)O)[C@@H](O)[C@H]2O)c1=O | 0.48 to 9.8 |  |  |  |  |  |  |  | Drug metabolism (MDCK [21]): Metabolite_Detected; IC50 [3]: 0.69 µM; Drug metabolism (MDCK [22]): Metabolite_Detected
